BigSolDB 2.1

CC1(C)COP(=O)(Oc2cc(OP3(=O)OCC(C)(C)CO3)cc(OP3(=O)OCC(C)(C)CO3)c2)OC1
solubility (mole fraction)
Conditions	in 1,4-dioxane	in THF	in acetone	in acetonitrile	in chloroform	in dichloromethane	in ethanol	in methanol
288.15 K	8.73e-05	0.000132	0.000453	0.000941	0.00551	0.00512	7.83e-05	0.000423
293.15 K	9.57e-05	0.000138	0.000502	0.00109	0.00634	0.00589	9.43e-05	0.000496
298.15 K	0.00011	0.000144	0.000568	0.00136	0.00713	0.00673	0.000111	0.000568
303.15 K	0.000127	0.000149	0.000638	0.00158	0.00802	0.00779	0.00013	0.000648
308.15 K	0.000139	0.000154	0.000718	0.00195	0.00921	0.00891	0.000156	0.000748
313.15 K	0.000153	0.000158	0.000805	0.00238	0.0106	–	0.000192	0.000874
318.15 K	0.000171	0.000162	0.000924	0.00289	0.0121	–	0.000225	0.000975
